Assay results: US20050009840A1 (SUGEN, INC., priority 2003, published 2005)
Counter-ions that a name gives are not always drawn.

Biological target: T1, Met kinase domain (GST fusion protein) (Homo sapiens, UniProt P08581)
T1 construct: Purified GST fusion protein containing the Met kinase domain
Assay: Met transphosphorylation assay (ELISA, poly(glu-tyr) substrate);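 note: Cell-free ELISA with plate-bound poly(Glu:Tyr 4:1) phosphorylated by GST-fused Met kinase domain plus ATP and Mn2+, phosphotyrosine detected by anti-phosphotyrosine antibody with HRP and ABTS read-out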
Type: biochemical
Conditions: read-out: Met IC50

T1 sequence (P08581 1078-1345 limits assumed): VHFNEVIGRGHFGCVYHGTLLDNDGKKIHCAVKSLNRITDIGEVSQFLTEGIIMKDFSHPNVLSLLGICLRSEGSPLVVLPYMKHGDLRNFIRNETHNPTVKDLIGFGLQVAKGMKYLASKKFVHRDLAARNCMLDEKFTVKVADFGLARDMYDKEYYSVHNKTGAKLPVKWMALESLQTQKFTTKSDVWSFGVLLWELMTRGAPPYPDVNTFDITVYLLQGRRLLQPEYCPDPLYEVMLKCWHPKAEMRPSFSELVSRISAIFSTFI

Row | SMILES | IC50
1 | CC(Oc1nc(-c2ccc(C(=O)NCCN3CCOCC3)cc2)cnc1N)c1c(Cl)cccc1Cl (stereo not shown) [II-158, 4-{5-Amino-6-[1-(2,6-dichloro-phenyl)-ethoxy]-pyrazin-2-yl}-N-(2-morpholin-4-yl-ethyl)-benzamide] | 320 nM
2 | CC(Oc1nc(-c2ccc(C(=O)N3CC[C@H](N)C3)cc2)cnc1N)c1c(Cl)cccc1Cl (stereo partly drawn) [II-165, (4-{5-Amino-6-[1-(2,6-dichloro-phenyl)-ethoxy]-pyrazin-2-yl}-phenyl)-((S)-3-aminopyrrolidin-1-yl)-methanone hydrogen chloride] | 100 nM
3 | CC(Oc1nc(-c2ccc(C(=O)NCCN3CCCC3)cc2)cnc1N)c1c(Cl)cccc1Cl (stereo not shown) [II-166, 4-{5-Amino-6-[1-(2,6-dichloro-phenyl)-ethoxy]-pyrazin-2-yl}-N-(2-pyrrolidin-1-yl-ethyl)-benzamide] | 110 nM
4 | CC(Oc1nc(-c2ccc(C(=O)NCCCN3CCCC3)cc2)cnc1N)c1c(Cl)cccc1Cl (stereo not shown) [II-167, 4-{5-Amino-6-[1-(2,6-dichloro-phenyl)-ethoxy]-pyrazin-2-yl}-N-(3-pyrrolidin-1-yl-propyl)-benzamide] | 220 nM
5 | CC(Oc1nc(-c2cccc(C(=O)NCCN3CCCC3)c2)cnc1N)c1c(Cl)cccc1Cl (stereo not shown) [II-170, 3-{5-Amino-6-[1-(2,6-dichloro-phenyl)-ethoxy]-pyrazin-2-yl}-N-(2-pyrrolidin-1-yl-ethyl)-benzamide] | 330 nM
6 | CC(Oc1nc(-c2cccc(C(=O)N3C[C@@H](C)N[C@@H](C)C3)c2)cnc1N)c1c(Cl)cccc1Cl (stereo partly drawn) [II-171, (3-{5-Amino-6-[1-(2,6-dichloro-phenyl)-ethoxy]-pyrazin-2-yl}-phenyl)-((3R,5S)-3,5-dimethyl-piperazin-1-yl)-methanone] | 360 nM
7 | CC(Oc1nc(-c2cccc(C(=O)NCCN3CCOCC3)c2)cnc1N)c1c(Cl)cccc1Cl (stereo not shown) [II-172, 3-{5-Amino-6-[1-(2,6-dichloro-phenyl)-ethoxy]-pyrazin-2-yl}-N-(2-morpholin-4-yl-ethyl)-benzamide] | 480 nM
8 | CC(=O)N1CCN(CCNC(=O)c2ccc(-c3cnc(N)c(OC(C)c4c(Cl)cccc4Cl)n3)cc2)CC1 (stereo not shown) [II-175, N-[2-(4-Acetyl-piperazin-1-yl)-ethyl]-4-{5-amino-6-[1-(2,6-dichloro-phenyl)-ethoxy]-pyrazin-2-yl}-benzamide] | 280 nM
9 | CC(=O)N1CCN(CCNC(=O)c2cccc(-c3cnc(N)c(OC(C)c4c(Cl)cccc4Cl)n3)c2)CC1 (stereo not shown) [II-176, N-[2-(4-Acetyl-piperazin-1-yl)-ethyl]-3-{5-amino-6-[1-(2,6-dichloro-phenyl)-ethoxy]-pyrazin-2-yl}-benzamide] | 350 nM
10 | CC(Oc1nc(-c2cccc(C(=O)N3CCC[C@@H]3CN3CCCC3)c2)cnc1N)c1c(Cl)cccc1Cl (stereo partly drawn) [II-177, (3-{5-Amino-6-[1-(2,6-dichloro-phenyl)-ethoxy]-pyrazin-2-yl}-phenyl)-((R)-2-pyrrolidin-1-ylmethyl-pyrrolidin-1-yl)-methanone] | 330 nM
11 | CC(Oc1nc(-c2cccc(C(=O)NCCCN3CCCC3)c2)cnc1N)c1c(Cl)cccc1Cl (stereo not shown) [II-178, 3-{5-Amino-6-[1-(2,6-dichloro-phenyl)-ethoxy]-pyrazin-2-yl}-N-(3-pyrrolidin-1-yl-propyl)-benzamide] | 340 nM
12 | CC(Oc1nc(-c2cccc(C(=O)N3CC[C@@H](N)C3)c2)cnc1N)c1c(Cl)cccc1Cl (stereo partly drawn) [II-180, (3-{5-Amino-6-[1-(2,6-dichloro-phenyl)-ethoxy]-pyrazin-2-yl}-phenyl)-((R)-3-amino-pyrrolidin-1-yl)-methanone hydrochloride salt] | 180 nM
13 | CC(Oc1nc(-c2cccc(C(=O)N3CCN(C)CC3)c2)cnc1N)c1c(Cl)cccc1Cl (stereo not shown) [II-181, (3-{5-Amino-6-[1-(2,6-dichloro-phenyl)-ethoxy]-pyrazin-2-yl}-phenyl)-(4-methyl-piperazin-1-yl)-methanone] | 250 nM
14 | CC(Oc1nc(-c2ccc(NC(=O)N3CCC[C@@H]3CN3CCCC3)cc2)cnc1N)c1c(F)ccc(F)c1Cl (stereo partly drawn) [II-183, (R)-2-Pyrrolidin-1-ylmethyl-pyrrolidin-1-carboxylic acid (4-{5-amino-6-[1-(2-chloro-3,6-difluoro-phenyl)-ethoxy]-pyrazin-2-yl}-phenyl)-amide] | 210 nM
15 | CC(Oc1nc(-c2ccc(NC(=O)NCCO)cc2)cnc1N)c1c(F)ccc(F)c1Cl (stereo not shown) [II-186, 1-(4-{5-Amino-6-[1-(2-chloro-3,6-difluoro-phenyl)-ethoxy]-pyrazin-2-yl}-phenyl)-3-(2-hydroxy-ethyl)-urea] | 210 nM
16 | CC(Oc1nc(-c2ccc(NC(=O)NCCO)cc2)cnc1N)c1c(Cl)ccc(F)c1Cl (stereo not shown) [II-190, 1-(4-{5-Amino-6-[1-(2,6-dichloro-3-fluoro-phenyl)-ethoxy]-pyrazin-2-yl}-phenyl)-3-(2-hydroxy-ethyl)-urea] | 280 nM

The remaining compounds from weak to strong by IC50, led by results:

Row | IC50 | SMILES
17 | 180 nM | CC(Oc1nc(-c2cccc(C(=O)NC3CCN(C)CC3)c2)cnc1N)c1c(Cl)cccc1Cl (stereo not shown) [II-169, 3-{5-Amino-6-[1-(2,6-dichloro-phenyl)-ethoxy)-pyrazin-2-yl}-N-(1-methyl-piperidin-4-yl)-benzamide]
18 | 180 nM | CC(Oc1nc(-c2cccc(C(=O)N3CCC[C@H]3CN3CCCC3)c2)cnc1N)c1c(Cl)cccc1Cl (stereo partly drawn) [II-173, (3-{5-Amino-6-[1-(2,6-dichloro-phenyl)-ethoxy]-pyrazin-2-yl}-phenyl)-((S)-2-pyrrolidin-1-ylmethyl-pyrrolidin-1-yl)-methanone]
19 | 180 nM | CC(Oc1nc(-c2ccc(NC(=O)NCCN3CCOCC3)cc2)cnc1N)c1c(F)ccc(F)c1Cl (stereo not shown) [II-182, 1-(4-{5-Amino-6-[1-(2-chloro-3,6-difluoro-phenyl)-ethoxy]-pyrazin-2-yl}-phenyl)-3-(2-morpholin-4-yl-ethyl)-urea]
20 | 180 nM | CC(Oc1nc(-c2ccc(NC(=O)NCCN3CCCC3)cc2)cnc1N)c1c(F)ccc(F)c1Cl (stereo not shown) [II-184, 1-(4-{5-Amino-6-[1-(2-chloro-3,6-difluoro-phenyl)-ethoxy]-pyrazin-2-yl}-phenyl)-3-(2-pyrrolidin-1-yl-ethyl)-urea]
21 | 170 nM | CC(Oc1nc(-c2cccc(C(=O)N3CCC(N4CCCC4)CC3)c2)cnc1N)c1c(Cl)cccc1Cl (stereo not shown) [II-174, (3-{5-Amino-6-[1-(2,6-dichloro-phenyl)-ethoxy]-pyrazin-2-yl}-phenyl)-(4-pyrrolidin-1-yl-piperidin-1-yl)-methanone]
22 | 160 nM | CC(Oc1nc(-c2ccc(C(=O)N3CCC(N4CCCC4)CC3)cc2)cnc1N)c1c(Cl)cccc1Cl (stereo not shown) [II-157, (4-{5-Amino-6-[1-(2,6-dichloro-phenyl)-ethoxy]-pyrazin-2-yl}-phenyl)-(4-pyrrolidin-1-yl-piperidin-1-yl)-methanone]
23 | 160 nM | CC(Oc1nc(-c2ccc(C(=O)N3CCC[C@@H]3CN3CCCC3)cc2)cnc1N)c1c(Cl)cccc1Cl (stereo partly drawn) [II-161, (4-{5-Amino-6-[1-(2,6-dichloro-phenyl)-ethoxy]-pyrazin-2-yl}-phenyl)-((R)-2-pyrrolidin-1-ylmethyl-pyrrolidin-1-yl)-methanone]
24 | 150 nM | CC(Oc1nc(-c2ccc(C(=O)N3CCN(C)CC3)cc2)cnc1N)c1c(Cl)cccc1Cl (stereo not shown) [II-163, (4-{5-Amino-6-[1-(2,6-dichloro-phenyl)-ethoxy]-pyrazin-2-yl}-phenyl)-(4-methyl-piperazin-1-yl)-methanone]
25 | 150 nM | CC(Oc1nc(-c2ccc(C(=O)N3CC[C@@H](N)C3)cc2)cnc1N)c1c(Cl)cccc1Cl (stereo partly drawn) [II-164, (4-{5-Amino-6-[1-(2,6-dichloro-phenyl)-ethoxy]-pyrazin-2-yl}-phenyl)-((R)-3-aminopyrrolidin-1-yl)-methanone]
26 | 140 nM | CC(Oc1nc(-c2ccc(C(=O)N3C[C@@H](C)N[C@@H](C)C3)cc2)cnc1N)c1c(Cl)cccc1Cl (stereo partly drawn) [II-159, (4-{5-Amino-6-[1-(2,6-dichloro-phenyl)-ethoxy]-pyrazin-2-yl}-phenyl)-((3R,5S)-3,5-dimethyl-piperazin-1-yl)-methanone]
27 | 140 nM | CC(Oc1nc(-c2ccc(C(=O)N3CCC[C@H]3CN3CCCC3)cc2)cnc1N)c1c(Cl)cccc1Cl (stereo partly drawn) [II-162, (4-{5-Amino-6-[1-(2,6-dichloro-phenyl)-ethoxy]-pyrazin-2-yl}-phenyl)-((S)-2-pyrrolidin-1-ylmethyl-pyrrolidin-1-yl)-methanone]
28 | 120 nM | CC(Oc1nc(-c2ccc(C(=O)NC3CCN(C)CC3)cc2)cnc1N)c1c(Cl)cccc1Cl (stereo not shown) [II-160, 4-{5-Amino-6-[1-(2,6-dichloro-phenyl)-ethoxy]-pyrazin-2-yl}-N-(1-methyl-piperidin-4-yl)-benzamide]
29 | 110 nM | CC(Oc1nc(-c2cccc(C(=O)N3CC[C@H](N)C3)c2)cnc1N)c1c(Cl)cccc1Cl (stereo partly drawn) [II-179, (3-{5-Amino-6-[1-(2,6-dichloro-phenyl)-ethoxy]-pyrazin-2-yl}-phenyl)-((S)-3-amino-pyrroldin-1-yl)-methanone]
30 | 100 nM | CC(Oc1nc(-c2ccc(NC(=O)N3CCN(C)CC3)cc2)cnc1N)c1c(F)ccc(F)c1Cl (stereo not shown) [II-185, 4-Methyl-piperazin-1-carboxylic acid (4-{5-amino-6-[1-(2-chloro-3,6-difluoro-phenyl)-ethoxy]-pyrazin-2-yl}-phenyl)-amide]
31 | 95 nM | CC(Oc1nc(-c2ccc(C(=O)N3C[C@@H](C)N[C@@H](C)C3)cc2)cnc1N)c1c(Cl)ccc(F)c1Cl (stereo partly drawn) [II-155, (4-{5-Amino-6-[1-(2,6-dichloro-3-fluoro-phenyl)-ethoxy]-pyrazin-2-yl}-phenyl)-((3R,5S)-3,5-dimethyl-piperazin-1-yl)-methanone]
32 | 82 nM | CC(Oc1nc(-c2ccc(NC(=O)N3CC[C@H](N)C3)cc2)cnc1N)c1c(F)ccc(F)c1Cl (stereo partly drawn) [II-187, (S)-3-Amino-pyrrolidine-1-carboxylic acid (4-{5-amino-6-[1-(2-chloro-3,6-difluoro-phenyl)-ethoxy]-pyrazin-2-yl}-phenyl)-amide]
33 | 74 nM | CC(Oc1nc(-c2ccc(NC(=O)N3CCN(C)CC3)cc2)cnc1N)c1c(Cl)ccc(F)c1Cl (stereo not shown) [II-189, 4-Methyl-piperazine-1-carboxylic acid (4-{5-amino-6-[1-(2,6-dichloro-3-fluoro-phenyl)-ethoxy]-pyrazin-2-yl}-phenyl)-amide]
34 | 54 nM | CC(Oc1nc(-c2ccc(NC(=O)NC3CCN(C)CC3)cc2)cnc1N)c1c(F)ccc(F)c1Cl (stereo not shown) [II-188, 1-(4-{5-Amino-6-[1-(2-chloro-3,6-difluoro-phenyl)-ethoxy]-pyrazin-2-yl}-phenyl)-3-(1-methyl-piperidin-4-yl)-urea]
